Experimental data: ChEMBL document CHEMBL1135518 (J Med Chem, 2002)

Assays:
[1] = molecular target: T1, D(4) dopamine receptor (Homo sapiens, UniProt P21917); assay: The binding affinity at the Dopamine receptor D4 determined using [3H]YM-09151-2
T1 sequence (P21917 whole entry): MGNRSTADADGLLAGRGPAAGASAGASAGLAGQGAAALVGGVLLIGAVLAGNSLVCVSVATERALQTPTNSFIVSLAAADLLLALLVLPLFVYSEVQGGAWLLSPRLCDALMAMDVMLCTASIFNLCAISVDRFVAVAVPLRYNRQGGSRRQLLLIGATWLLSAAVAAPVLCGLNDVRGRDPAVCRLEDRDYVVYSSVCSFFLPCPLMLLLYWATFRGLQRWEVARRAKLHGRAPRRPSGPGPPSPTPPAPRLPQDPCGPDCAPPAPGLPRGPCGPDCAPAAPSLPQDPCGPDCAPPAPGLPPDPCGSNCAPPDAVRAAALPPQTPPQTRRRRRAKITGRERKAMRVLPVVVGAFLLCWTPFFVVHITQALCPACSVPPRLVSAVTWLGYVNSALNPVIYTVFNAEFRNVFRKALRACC

[2] = tested on: Rattus norvegicus; assay: The increase in the extracellular levels of 5-HIAA in the rat ventral hippocampus at a dose of 2.5 mg/kg sc measured by in vivo microdialysis; type: functional; conditions: route subcutaneous
[3] = molecular target: T2, Adrenergic receptor alpha-1 (Rattus norvegicus, UniProt P15823+P23944+P43140); assay: The binding affinity at Alpha-1 adrenergic receptor determined using [3H]prazosin; type: protein assay
T2 sequence (P15823 whole entry): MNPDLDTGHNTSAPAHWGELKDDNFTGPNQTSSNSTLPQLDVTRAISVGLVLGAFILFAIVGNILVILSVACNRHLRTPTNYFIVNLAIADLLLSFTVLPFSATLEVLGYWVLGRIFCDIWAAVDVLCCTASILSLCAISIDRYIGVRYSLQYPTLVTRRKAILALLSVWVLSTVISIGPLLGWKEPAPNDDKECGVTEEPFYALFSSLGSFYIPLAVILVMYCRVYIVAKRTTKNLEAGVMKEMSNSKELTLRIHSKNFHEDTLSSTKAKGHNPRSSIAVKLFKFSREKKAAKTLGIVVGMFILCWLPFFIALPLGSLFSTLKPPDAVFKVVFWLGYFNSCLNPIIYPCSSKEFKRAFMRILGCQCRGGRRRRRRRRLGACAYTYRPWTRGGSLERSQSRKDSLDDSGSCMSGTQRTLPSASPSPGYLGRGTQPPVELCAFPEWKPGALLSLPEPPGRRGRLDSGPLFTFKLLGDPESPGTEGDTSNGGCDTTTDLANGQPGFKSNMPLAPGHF
T2 sequence (P23944 whole entry): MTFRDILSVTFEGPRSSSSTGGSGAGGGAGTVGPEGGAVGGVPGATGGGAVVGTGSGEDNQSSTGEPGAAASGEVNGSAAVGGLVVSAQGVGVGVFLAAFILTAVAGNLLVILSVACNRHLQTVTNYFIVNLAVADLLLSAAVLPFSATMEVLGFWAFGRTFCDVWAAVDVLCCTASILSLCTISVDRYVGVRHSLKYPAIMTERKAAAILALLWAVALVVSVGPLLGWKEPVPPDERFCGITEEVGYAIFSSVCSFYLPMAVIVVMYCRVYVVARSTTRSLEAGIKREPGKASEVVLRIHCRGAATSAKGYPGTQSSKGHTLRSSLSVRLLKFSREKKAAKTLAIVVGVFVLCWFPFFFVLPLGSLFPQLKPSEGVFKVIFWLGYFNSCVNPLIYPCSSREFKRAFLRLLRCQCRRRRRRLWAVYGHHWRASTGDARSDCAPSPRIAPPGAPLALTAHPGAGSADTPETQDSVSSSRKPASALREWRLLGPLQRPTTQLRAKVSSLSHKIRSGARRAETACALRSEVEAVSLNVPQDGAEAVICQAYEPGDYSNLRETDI
T2 sequence (P43140 whole entry): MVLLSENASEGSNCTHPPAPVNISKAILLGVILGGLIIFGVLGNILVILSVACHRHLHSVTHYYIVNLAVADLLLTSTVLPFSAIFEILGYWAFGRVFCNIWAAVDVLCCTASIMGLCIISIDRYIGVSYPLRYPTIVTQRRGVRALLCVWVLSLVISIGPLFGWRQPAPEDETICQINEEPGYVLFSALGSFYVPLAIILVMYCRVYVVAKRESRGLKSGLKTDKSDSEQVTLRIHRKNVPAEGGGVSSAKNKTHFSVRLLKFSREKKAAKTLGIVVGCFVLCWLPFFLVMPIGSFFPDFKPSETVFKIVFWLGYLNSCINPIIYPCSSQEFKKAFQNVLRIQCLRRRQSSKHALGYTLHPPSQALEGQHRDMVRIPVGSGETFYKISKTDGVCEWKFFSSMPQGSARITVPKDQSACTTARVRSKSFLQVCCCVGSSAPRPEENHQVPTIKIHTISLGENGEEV

[4] = molecular target: D(3) dopamine receptor (Homo sapiens, UniProt P35462); assay: The binding affinity at the Dopamine receptor D3 determined using [3H]spiperone
D(3) dopamine receptor, sequence (P35462 whole entry): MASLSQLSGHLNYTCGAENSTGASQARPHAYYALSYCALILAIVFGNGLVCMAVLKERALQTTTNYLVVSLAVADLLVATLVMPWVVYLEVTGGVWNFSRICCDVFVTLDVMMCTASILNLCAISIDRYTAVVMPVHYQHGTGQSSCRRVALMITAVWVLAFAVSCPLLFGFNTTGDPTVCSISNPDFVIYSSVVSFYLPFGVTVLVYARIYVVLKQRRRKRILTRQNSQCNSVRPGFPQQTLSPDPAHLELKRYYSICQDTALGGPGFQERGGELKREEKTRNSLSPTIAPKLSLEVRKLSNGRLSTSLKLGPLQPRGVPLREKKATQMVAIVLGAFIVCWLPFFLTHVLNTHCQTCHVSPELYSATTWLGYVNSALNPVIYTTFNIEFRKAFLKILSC

[5] = molecular target: Norepinephrine transporter (Rattus norvegicus, UniProt Q9WTR4); assay: The binding affinity at the Norepinephrine transporter reuptake sites determined using competition binding assay
Norepinephrine transporter, sequence (Q9WTR4 whole entry): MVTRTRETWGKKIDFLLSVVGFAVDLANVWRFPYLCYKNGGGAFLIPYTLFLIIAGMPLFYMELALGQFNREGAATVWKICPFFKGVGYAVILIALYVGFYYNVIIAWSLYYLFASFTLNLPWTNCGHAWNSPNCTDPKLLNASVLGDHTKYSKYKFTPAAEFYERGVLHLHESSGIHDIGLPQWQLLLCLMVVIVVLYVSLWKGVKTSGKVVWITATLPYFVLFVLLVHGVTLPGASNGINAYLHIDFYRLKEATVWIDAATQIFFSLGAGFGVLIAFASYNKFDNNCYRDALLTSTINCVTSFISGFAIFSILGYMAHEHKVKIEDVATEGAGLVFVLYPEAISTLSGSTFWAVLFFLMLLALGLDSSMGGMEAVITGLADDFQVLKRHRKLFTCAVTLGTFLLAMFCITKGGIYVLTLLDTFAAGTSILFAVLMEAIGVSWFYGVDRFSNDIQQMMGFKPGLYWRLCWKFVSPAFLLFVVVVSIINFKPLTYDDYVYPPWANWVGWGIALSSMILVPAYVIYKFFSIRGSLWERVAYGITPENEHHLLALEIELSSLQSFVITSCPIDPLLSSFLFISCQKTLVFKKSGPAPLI

Compound | Ki [1] | Increase [2] | Ki [3] | Ki [4] | IC50 [5]
COc1cccc2c1N1CCN(C)C[C@@H]1c1ccccc1C2 | 160 nM | 120% | 205 nM | 3570 nM | 1240 nM
COc1cccc2c1N1CCN(C)C[C@H]1c1ccccc1C2 | 47 nM | 120% | 74 nM | 100 nM | 2860 nM
COc1cccc2c1N1CCN(C)CC1c1ccccc1C2 (racemic) | 92 nM | – | 84 nM | 260 nM | 1780 nM
